Test results: patent US20020065309A1, “Novel Bicyclic and tricyclic pyrrolidine derivatives as GnRH antagonists” (priority 1999, published 2002)

Target: T1, human GnRH receptor (Homo sapiens, UniProt P30968)
T1 construct: expressed in transfected cells; host or cells: COS-1 cells infected with recombinant adenovirus; membrane preparation
T1 sequence (P30968 1-328): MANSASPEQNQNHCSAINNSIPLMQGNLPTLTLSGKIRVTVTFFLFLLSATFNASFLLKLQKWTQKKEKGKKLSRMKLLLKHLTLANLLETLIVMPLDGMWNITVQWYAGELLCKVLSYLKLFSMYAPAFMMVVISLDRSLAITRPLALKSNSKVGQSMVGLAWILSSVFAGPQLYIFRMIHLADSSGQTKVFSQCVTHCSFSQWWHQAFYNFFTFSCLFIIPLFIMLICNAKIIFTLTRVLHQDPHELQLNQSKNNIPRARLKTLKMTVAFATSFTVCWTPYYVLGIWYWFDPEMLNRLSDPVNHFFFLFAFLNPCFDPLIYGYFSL
Assay: GnRH radioligand binding assay
Details: 125I-LHRH-D-Trp6 radioligand; COS-1 cell membranes containing human GnRH receptors; 2 h at 4 C
Method: COS-1 cells infected with a recombinant adenovirus directing the expression of the human GnRH receptor were harvested 48 hours after virus infection using cell dissociation buffer from Gibco-BRL and pelleted by centrifugation (5 min., 1100 rpm in RC3B, […]). The pellet was suspended in 20 ml ice cold binding buffer (25 mM Tris HCl, pH 7.4, 0.1% sodium azide, 0.1% BSA) and homogenized using polytron (Tempest Virtishear, Virtis).
The homogenate was centrifuged for 12 min. at 14,500 rpm in a RC5B and the supernatant discarded. The pellet was re-homogenized in 20 ml of binding buffer and centrifuged. The final pellet was resuspended in a small volume of binding buffer such that the final protein concentration was approximately 1.5 mg/ml (according to Pierce-BCA Protein kit). Aliquots of membrane preparation could then be stored frozen at −70 C without significant loss of binding activity for future use.
Samples were diluted in binding buffer (25 mM Tris pH 7.5, 10 MM MgCl2, 0.01% NaN3, 0.1% BSA) for the assay. The radioligand used was ^125I-LHRH-D-TrP6, approximately 50-70,000 counts/25 μl Non-specific binding was determined using LHRH-D-TrP6 at a final concentration of 1 µM. Addition of GnRH membranes to the assay was optimized to give a signal-to-noise ratio of 10:1.
Twenty-five μl sample (4× final concentration), 50 μl membranes and 25 μl radioligand were incubated in a V-bottom 96-well plate with shaking for 2 h at 4 C. The incubated mixture was then filtered onto a Whatman GF/B membrane pre-treated with 0.1% poly(ethylene imine) using a Packard Cell Harvester. The filter was dried for approximately 10 min. at 37 C. Forty μl Microscint 20 was added and the radioactivity remaining on the filter was counted using a Topcount γ-counter.
Binding inhibition was calculated from the measured values using a concentration series of each test compound in the conventional manner.

Row | Compound | IC50 [nM]
1 | COc1cc(Br)c(CN2C[C@@H]3C[C@@H](c4ccc(N(C)C)c5ccccc45)N4C(=O)N(CCN5CCOCC5)C(=O)[C@@]34C2)cc1O (relative stereo) [AF21813] | ~80
2 | COc1cc(CN2C[C@@H]3C[C@@H](c4ccc(N(C)C)c5ccccc45)N4C(=O)N(CCN5CCOCC5)C(=O)[C@@]34C2)c(Br)c(Br)c1O (relative stereo) [AF21278] | 280 ± 170
3 | COc1ccc(CN2C[C@@H]3C[C@@H](c4ccc(N(C)C)c5ccccc45)N4C(=O)N(CCN5CCNCC5)C(=O)[C@@]34C2)cc1O (relative stereo) [AF22352] | ~1500
4 | O=C1N(CCN2CCOCC2)C(=O)[C@]23CNC[C@H]2C[C@H](c2cnc4ccccc4c2)N13 (relative stereo) [Compound 76, (trans)-2-(2-morpholin-4-ylethyl)-5-quinolin-3-ylhexahydro-1H-pyrrolo [3′,4′:2,3] pyrrolo [1,2-c]imidazole-1,3(2H)-dione] | ~270
5 | COc1ccc(CN2C[C@@H]3C[C@@H](c4ccc(N(C)C)c5ccccc45)N4C(=O)N(CCc5ccncc5)C(=O)[C@@]34C2)cc1O (relative stereo) [AF22053] | ~385
6 | COc1ccc(CN2C[C@@H]3C[C@@H](c4ccc(OC)c5ccccc45)N4C(=O)N(CCN5CCOCC5)C(=O)[C@@]34C2)cc1O (relative stereo) [AF21477] | ~612
7 | COc1ccc(CN2C[C@@H]3C[C@@H](c4ccc(N(C)C)c5ccccc45)N4C(=O)N(CCN5CCOCC5)C(=O)[C@@]34C2)cc1O (relative stereo) [AF21276] | 35 ± 6
8 | CCOc1cc(CN2C[C@@H]3C[C@@H](c4ccc(N(C)C)c5ccccc45)N4C(=O)N(CCN5CCOCC5)C(=O)[C@@]34C2)ccc1O (relative stereo) [AF20660] | 800 ± 110
9 | COc1ccc(CN2C[C@H]3C[C@H](c4ccnc5ccccc45)N4C(=O)N(CCN5CCOCC5)C(=O)[C@]34C2)cc1O (relative stereo) [Compound 73, (trans)-8-(3-hydroxy-4-methoxybenzyl)-2-(2-morpholin-4-ylethyl)-5-quinolin-4-ylhexahydro-1H-pyrrolo [3′, 4′:2,3]pyrrolo[1,2-c]imidazole-1,3(2H)-dione] | ~1500
10 | COc1ccc(CN2C[C@H]3C[C@H](c4ccc(N(C)C)c5ccccc45)N4C(=O)N(CCN5CCOCC5)C(=O)[C@]34C2)cc1NC(C)=O (relative stereo) [Compound 36, N-{5-[((trans)-5-[4-(dimethylamino)-1-naphthyl]-2-(2-morpholin-4-ylethyl)-1,3-dioxohexahydro-1H-pyrrolo[3′,4′:2,3]pyrrolo[1,2-c]imidazol-8(9H)-yl)methyl]-2-methoxyphenyl}acetamide] | ~21
11 | COc1ccc(CN2C[C@@H]3C[C@@H](c4ccc(N(C)C)cc4)N4C(=O)N(CCN5CCOCC5)C(=O)[C@@]34C2)cc1O (relative stereo) [AF21479] | ~160
12 | COc1ccc(CN2C[C@H]3C[C@H](c4ccc(N)c5ccccc45)N4C(=O)N(CCN5CCOCC5)C(=O)[C@]34C2)cc1O (relative stereo) [Compound 17, (trans)-5-[4-amino-1-naphthyl]-8-(3-hydroxy-4-methoxybenzyl)-2-(2-morpholin-4-ylethyl)hexahydro-1H-pyrrolo[3′,4′:2,3]pyrrolo[1,2-c]imidazole-1,3(2H)-dione] | ~321
